“Also recorded” adds a separate entry of the source. Read-outs that look alike come from different tables or passages of the source.
Assays:
[1] = cited from earlier work; for breath AMS and acetone production: after consumption; for time of disappearance from breath: after garlic consumption
[2] = cited from earlier work; for metabolism in blood: disappearing in the process; for Reaction in Blood Half-life: in vitro
[3] = after fresh garlic (e.g. 25 g) or pure allicin (60 mg); cited from earlier work
[4] = in vitro, in the presence of cysteine; cited from earlier work
plaque = test: Diluted allyl mercaptan poured over the toothbrush bristles (Applicant); type: in vivo; details: 1/200 in distilled water on toothbrush, a week of use
Text: Because allyl mercaptan and propyl mercaptan are water soluble, it is easier to experiment with them than with diallyl disulfide or dipropyl disulfide (which are an oils).

leukemia cell cultures = details: co-administered to reduce glutathione; cited from earlier work
13 types of bacteria = details: cited from earlier work
[5] = system: pro-inflammatory cytokines (e.g. IL-1, TNF-alpha and IL-10); details: cited from earlier work
[6] = system: cytochrome P-450 enzymes (e.g. CYP2E1) and flavin-containing monooxygenases; details: cited from earlier work
plaque, mouth sores = test: Evaluation of the antimicrobial toothpaste by Applicant and evaluators; type: in vivo; details: as active ingredient of experimental toothpastes
Experimental: I decided to next try mixing it with the toothpaste that I normally use by squeezing out the contents of a tube of Arm and Hammer Dental Care Toothpaste into a bowl, mixing in 10 ml (2 teaspoons) of 1/200 diluted allyl mercaptan, and then returning the toothpaste to the tube. […] Mixing with a conventional toothpaste provides an adequate carrier for the allium related compound. More generally, of course, any orally acceptable carrier suitable for application to the teeth may be used. […] This includes the carriers used in commercially available toothpastes, tooth powders, or other dentifrice products.
The resulting toothpaste has no significant “garlic” smell or taste. It left the mouth feeling very clean, so clean that unwaxed dental floss “squeaks” when slid up and down the side of each tooth.
Several friends and acquaintances were willing to try the toothpaste and provide feedback. Under a “Nondisclosure and Produce Evaluation Agreement” I supplied them with free samples to evaluate. The agreement specified that the samples are not for sale, that the inventive aspects of the samples are confidential, and that the samples have no warranty.
A commercial version of the toothpaste (using onion oil as the active ingredient) is now being manufactured under license by Viola Vitalis corporation of Dhaka, Bangladesh (a company that is partially owned by the applicant).

[7] = system: Cu2^+ induced LDL oxidation; details: cited from earlier work
NFkB = details: macrophages, cited from earlier work
acetaminophen poisoning = details: mice, cited from earlier work
[8] = system: total glutathione level of cells; details: in vitro administration of SAMC; cited from earlier work
[9] = during the first hour after consumption; cited from earlier work
[10] = cited from earlier work
trypsin enzyme inhibitor = details: cysteine 2% by weight, soy flour heated at 65 degrees C. for 1 hour; cited from earlier work
nematodes = details: cited from earlier work
E-coli O157:H7 = details: cited from earlier work
[11] = molecular target: NFkB signal transduction proteins p50 and P65 (Homo sapiens, UniProt P19838+Q04206); details: measured with a nitric oxide probe; cited from earlier work
[12] = without nitrosothiol formation; cited from earlier work
glutathione = details: daily dosage of 1000 mg, multiple myeloma patients; cited from earlier work
liver glutathione level = details: cited from earlier work

In the case of `C=CCSSC=CC[S+]([O-])CC=C` (mixture of isomers) [ajoene], the “breath AMS and acetone production” value [1] is given as “produce both breath AMS and acetone” and the metabolism in blood [2] is given as “metabolize directly in blood to allyl mercaptan”.

For `C=CCSC` [AMS, allyl methyl sulfide], the “time of disappearance from breath” value [1] is listed as roughly 20 h.

For `C=CCS[S+]([O-])CC=C` (centres unmarked) [Allicin, DiAllylThioSulfinate], the “detectability in blood, urine, or stool” value [3] is given as “undetectable”, the “Reaction with Cysteine Half-life” value [4] is given as less than 1 min and the “Reaction in Blood Half-life” value [2] is given as less than 1 min. The “time for metabolism to allyl mercaptan” value ([2]; red blood cells exposed to allicin) was “less than one minute”.

For `C=CCS` [AllylSH, AllylThiol], the “time of disappearance from breath” value [1] is listed as no more than 1 h, the “Reaction with Cysteine Half-life” value [4] is listed as 80 min and the plaque (plaque) is listed as “reduction in plaque”.

In the case of `CCCCS(=N)(=O)CCC(N)C(=O)O` (centres unmarked) [BSO, buthionine sulfoximine], the “cytotoxicity of chemotherapeutic arsenicals” value (leukemia cell cultures) is given as “increase the cytotoxicity”.

For `O=C(N[C@H](CO)[C@H](O)c1ccc([N+](=O)[O-])cc1)C(Cl)Cl` [Chloramphenicol], the “average zone of inhibition” value (13 types of bacteria) is listed as 20 mm and the species inhibited (13 types of bacteria) is listed as 12/13.

For `C=CCSSCC=C` [DADS, Diallyl Disulfide], the “breath AMS and acetone production” value [1] is listed as “produce both breath AMS and acetone”, the “Reaction with Cysteine Half-life” value [4] is listed as 45 min and the metabolism in blood [2] is listed as “metabolize directly in blood to allyl mercaptan”. The “Reaction in Blood Half-life” value [2] was 60 min, the “expression of pro-inflammatory cytokines” value [5] was “inhibit the expression” and the “activity of the enzymes producing allicin from DADS” value [6] was “up to 121 pmol/min/pmol CYP2D6”. The “conversion of DADS to allicin” value ([6]; in 30 minutes) was “approximately 30%”.

In the case of `C=CCSCC=C` [DAS], the “breath AMS and acetone production” value [1] is listed as “only produces breath acetone”.

For `CCCSSCCC` [DPDS, di-n-propyl disulfide], the “performance relative to the allyl mercaptan toothpaste” value (plaque, mouth sores) is given as “performed similarly” and the “expression of pro-inflammatory cytokines” value [5] is given as “inhibit the expression”.

For `C=CCSC[C@H](NC(C)=O)C(=O)O` [N-acetyl-S-allylcysteine], the “effect on Cu2^+ induced LDL oxidation” value [7] is given as “significantly reduce”.

In the case of `N[C@@H](CSN=O)C(=O)O` [S-Nitrosocysteine], the “donor concentration that nearly completely inhibits the activation of NFkB” value (NFkB; nitric oxide donor) is given as 1 micro mole.

For `C=CCSC[C@H](N)C(=O)O` [S-allylcysteine], the “breath AMS and acetone production” value [1] is listed as “produces no breath AMS or acetone” and the “effect on Cu2^+ induced LDL oxidation” value [7] is listed as “significantly reduce”.

In the case of `C=CCSSC[C@H](N)C(=O)O` [SAMC, S-AllylMercaptoCysteine], the “protection from acetaminophen poisoning, pretreatment” value (acetaminophen poisoning; pretreatment) is listed as “protect mice from acetaminophen poisoning”, the “protection from acetaminophen, post treatment” value (acetaminophen poisoning; single dose 200 mg/kg shortly after exposure) is listed as “protective” and the “breath AMS and acetone production” value [1] is listed as “produce both breath AMS and acetone”. The metabolism in blood [2] was “metabolize directly in blood to allyl mercaptan”, the “Reaction in Blood Half-life” value [2] was 3 min and the “effect on Cu2^+ induced LDL oxidation” value [7] was “significantly reduce”. The “total glutathione level of cells” value [8] was “significantly increase; also recorded: significant increases the total glutathione level”.

For `[AsH3]` [arsenic], the “fraction excreted directly from the liver to the bile” value [9] is listed as roughly 40%.

For `N[C@@H](CS)C(=O)O` [cysteine, Cysteine], the pKa [10] is listed as “approximately 8.5” and the “deactivation of the trypsin enzyme inhibitor” value (trypsin enzyme inhibitor) is listed as “over 90%”.

In the case of `C=CCSSSCC=C` [diallyl trisulfide], the “breath AMS and acetone production” value [1] is given as “produce both breath AMS and acetone” and the metabolism in blood [2] is given as “metabolize directly in blood to allyl mercaptan”.

For `CCCS[S+]([O-])CCC` (centres unmarked) [dipropyl thiosulfinate, Dipropyl Thiosulfinate], the nematicidal activity ranking (nematodes) is listed as “most effective compound found”.

In the case of `C=CCS[S+](C)[O-]` (centres unmarked) [methyl allyl thiosulfinate], the “effectiveness against E-coli O157:H7” value (E-coli O157:H7) is given as “effective”.

In the case of `CS[S+](C)[O-]` (centres unmarked) [methyl methane thiosulfinate, Methyl methanethiosulfinate], the “effectiveness against E-coli O157:H7” value (E-coli O157:H7) is given as “effective”.

For `[N]=O` [nitric oxide], the “concentration that inhibited DNA binding activity of p50 and P65” value [11] is listed as 20-100 nano mole, the “half life in circulation” value [12] is listed as “about 5 seconds” and the “concentration that nearly completely inhibits the activation of NFkB” value (NFkB) is listed as “less than 1 micro-mole”.

In the case of `O=C1O[C@H]([C@@H](O)CO)C(O)=C1O` [vitamin C, ascorbic acid], the “mean percentage decrease of glutathione” value (glutathione) is given as 60% and the “cytotoxicity of chemotherapeutic arsenicals” value (leukemia cell cultures) is given as “increase the cytotoxicity”.

For S-allylcysteine sulfoxide [alliin], the “effect on Cu2^+ induced LDL oxidation” value [7] is listed as “significantly reduce”.

In the case of sodium arsenate, the liver glutathione level (liver glutathione level; protein deficient (6%) rats, unexposed controls 74) is given as 134 micrograms per gram and the liver glutathione level (liver glutathione level; well fed rats (18% protein), unexposed controls 88) is given as 123 micrograms per gram.
